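How tested: cells in 96-well plates exposed to compound for 48 hours at five concentrations. GI50: concentration for 50% inhibition of growth. At the TGI there is no net growth.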
Experiments:
Experiment in all cases: NCI tumour cell line growth inhibition, 48 h
[1] = tested on: 786-0 renal
[2] = tested on: A498 renal
[3] = tested on: A549 NSCLC
[4] = tested on: ACHN renal
[5] = tested on: CAKI-1 renal
[6] = tested on: CCRF-CEM leukemia
[7] = tested on: COLO 205 colon
[8] = tested on: DLD-1 colon
[9] = tested on: DMS 114 small cell lung
[10] = tested on: DMS 273 small cell lung
[11] = tested on: EKVX NSCLC
[12] = tested on: HCC-2998 colon
[13] = tested on: HCT-116 colon
[14] = tested on: HCT-15 colon
[15] = tested on: HL-60(TB) leukemia
[16] = tested on: HOP-18 NSCLC
[17] = tested on: HOP-62 NSCLC
[18] = tested on: HOP-92 NSCLC
[19] = tested on: HT29 colon
[20] = tested on: IGROV1 ovarian
[21] = tested on: K-562 leukemia
[22] = tested on: KM12 colon
[23] = tested on: KM20L2 colon
[24] = tested on: LOX IMVI melanoma
[25] = tested on: LXFL 529 NSCLC
[26] = tested on: M14 melanoma
[27] = tested on: M19-MEL melanoma
[28] = tested on: MALME-3M melanoma
[29] = tested on: MOLT-4 leukemia
[30] = tested on: NCI-H226 lung
[31] = tested on: NCI-H23 lung
[32] = tested on: NCI-H460 lung
[33] = tested on: NCI-H522 lung
[34] = tested on: OVCAR-3 ovarian
[35] = tested on: OVCAR-4 ovarian
[36] = tested on: OVCAR-5 ovarian
[37] = tested on: OVCAR-8 ovarian
[38] = tested on: RPMI-8226 leukemia
[39] = tested on: RXF 393 renal
[40] = tested on: RXF-631 renal
[41] = tested on: SF-268 CNS
[42] = tested on: SF-295 CNS
[43] = tested on: SF-539 CNS
[44] = tested on: SK-MEL-28 melanoma
[45] = tested on: SK-MEL-5 melanoma
[46] = tested on: SK-OV-3 ovarian
[47] = tested on: SN12C renal
[48] = tested on: SNB-19 CNS
[49] = tested on: SNB-75 CNS
[50] = tested on: SNB-78 CNS
[51] = tested on: SW-620 colon
[52] = tested on: TK-10 renal
[53] = tested on: U251 CNS
[54] = tested on: UACC-257 melanoma
[55] = tested on: UACC-62 melanoma
[56] = tested on: UO-31 renal
[57] = tested on: XF 498 CNS

CCC[CH2][Ge]([CH2]CCC)([CH2]CCC)[O]C(=O)C(O)c1ccccc1 (stereo unspecified)
GI50 [1]: 7.41 µM
TGI [1]: 23.2 µM
GI50 [2]: 11.7 µM
TGI [2]: 26.8 µM
GI50 [3]: 2 µM
TGI [3]: 26 µM
GI50 [4]: 4.23 µM
TGI [4]: 19.8 µM
GI50 [5]: 5.9 µM
TGI [5]: 24.1 µM
GI50 [6]: 0.207 µM
TGI [6]: 25.7 µM
GI50 [7]: 2.33 µM
TGI [7]: 12 µM
GI50 [8]: 1.99 µM
TGI [8]: 21.9 µM
GI50 [9]: 0.284 µM
TGI [9]: 7.19 µM
GI50 [10]: 1.2 µM
TGI [10]: 11.9 µM
GI50 [11]: 0.309 µM
TGI [11]: 15 µM
GI50 [12]: 2.69 µM
TGI [12]: 14.4 µM
GI50 [13]: 0.571 µM
TGI [13]: 13.8 µM
GI50 [14]: 1.78 µM
TGI [14]: 14.2 µM
TGI [15]: 4.3 µM
GI50 [16]: 18.5 µM
TGI [16]: 51 µM
GI50 [17]: 9.67 µM
TGI [17]: 23.4 µM
GI50 [18]: 0.49 µM
TGI [18]: 15.8 µM
GI50 [19]: 3.32 µM
TGI [19]: 20.8 µM
GI50 [20]: 9.44 µM
TGI [20]: 30.6 µM
GI50 [21]: 0.443 µM
TGI [21]: 19.9 µM
GI50 [22]: 2.96 µM
TGI [22]: 17.4 µM
GI50 [23]: 2.18 µM
TGI [23]: 22 µM
GI50 [24]: 1.85 µM
TGI [24]: 13.6 µM
GI50 [25]: 1.29 µM
TGI [25]: 21.4 µM
GI50 [26]: 2.51 µM
TGI [26]: 12 µM
GI50 [27]: 8.65 µM
TGI [27]: 22.3 µM
GI50 [28]: 1.45 µM
TGI [28]: 18 µM
GI50 [29]: 0.602 µM
TGI [29]: > 39.4 µM
GI50 [30]: 1.2 µM
TGI [30]: 27.9 µM
GI50 [31]: 0.366 µM
TGI [31]: 9.91 µM
GI50 [32]: 3.03 µM
TGI [32]: 34.9 µM
GI50 [33]: 0.411 µM
TGI [33]: 5.65 µM
GI50 [34]: 1.35 µM
TGI [34]: 18.4 µM
GI50 [35]: 0.794 µM
TGI [35]: 29 µM
GI50 [36]: 6.27 µM
TGI [36]: 21.7 µM
GI50 [37]: 10.6 µM
TGI [37]: 22.4 µM
GI50 [38]: 0.641 µM
TGI [38]: 42.2 µM
TGI [39]: 1.06 µM
GI50 [40]: 5.7 µM
TGI [40]: 31.9 µM
GI50 [41]: 6.74 µM
TGI [41]: > 65.1 µM
GI50 [42]: 1.01 µM
TGI [42]: 17.6 µM
GI50 [43]: 9.64 µM
TGI [43]: 22.1 µM
GI50 [44]: 12.7 µM
TGI [44]: 29.8 µM
GI50 [45]: 1.46 µM
TGI [45]: 13.2 µM
GI50 [46]: 9.27 µM
TGI [46]: 35.6 µM
GI50 [47]: 4.58 µM
TGI [47]: 23.4 µM
GI50 [48]: 18.5 µM
TGI [48]: > 63.7 µM
GI50 [49]: 4.51 µM
TGI [49]: > 100 µM
GI50 [50]: 3.04 µM
TGI [50]: 38.8 µM
GI50 [51]: 4.09 µM
TGI [51]: 20.4 µM
GI50 [52]: 18 µM
TGI [52]: > 100 µM
GI50 [53]: 2.32 µM
TGI [53]: 20.3 µM
GI50 [54]: 1.08 µM
TGI [54]: 15.5 µM
GI50 [55]: 4.03 µM
TGI [55]: 18.1 µM
GI50 [56]: 0.885 µM
TGI [56]: 15.8 µM
TGI [57]: 4.92 µM

From PubChem BioAssay (NCI)
